pIC50: −log10 of the molar value. Like-named read-outs stand apart in the source and are kept apart here.
Key:
heparanase = target: T1, heparanase (Homo sapiens, UniProt Q9Y251); test: AGA*IA assay (fondaparinux cleavage, WST-1 colorimetric) for heparanase inhibition; format: biochemical
T1 sequence (Q9Y251 158-543 limits assumed): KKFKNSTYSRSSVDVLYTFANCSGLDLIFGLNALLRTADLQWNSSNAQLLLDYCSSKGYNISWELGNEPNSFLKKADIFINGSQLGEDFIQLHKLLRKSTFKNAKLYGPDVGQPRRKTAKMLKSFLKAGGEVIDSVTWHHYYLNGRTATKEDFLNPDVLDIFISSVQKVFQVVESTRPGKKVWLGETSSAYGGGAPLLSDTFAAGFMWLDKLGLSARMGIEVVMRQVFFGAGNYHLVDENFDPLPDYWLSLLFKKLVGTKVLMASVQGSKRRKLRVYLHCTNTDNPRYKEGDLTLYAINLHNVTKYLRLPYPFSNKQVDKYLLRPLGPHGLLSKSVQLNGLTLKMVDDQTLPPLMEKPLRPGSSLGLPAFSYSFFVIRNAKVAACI
T1 sequence (Q9Y251 36-109 limits assumed): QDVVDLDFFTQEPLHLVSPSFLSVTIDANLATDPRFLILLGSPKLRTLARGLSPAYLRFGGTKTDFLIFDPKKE
Experimental: All compounds were tested in a simple, accurate and robust microplate assay based on the cleavage of the synthetic heparin fragment, the pentasaccharide Fondaparinux (AGA*IA). This assay was originally developed by Hammond and coworkers [Hammond E, Li CP, Ferro V. Development of a colorimetric assay for heparanase activity suitable for kinetic analysis and inhibitor screening. […] Fondaparinux is cleaved by heparanase to generate a reducing disaccharide, which can be quantitatively measured via a colorimetric or a fluorescence assay, the last by the fluorescent sensor polymer-H [Schiemann S, Lühn S, Alban S. Development of both colorimetric and fluorescence heparinase activity assays using fondaparinux as substrate.
The assay measures the appearance of the disaccharide product of heparanase-catalyzed fondaparinux cleavage colorimetrically using the tetrazolium salt WST-1. Assay was essentially performed as described with minor modifications. Briefly, NUNC ELISA 96-well plates were pre-treated with a solution of 4% BSA (bovin serum albumin) in phosphate-buffered saline containing 0.05% Tween 20 (PBST), for 2 h at 37°C, then washed three times with PBST, dried by tapping on paper towel and stored at -20°C. Before use, once again, the plates were washed with PBST.
Then, the absorbance at 560 nm was measured through a microplate reader (Victor 3, Perkin Elmer).
Finally, the measurements were corrected by subtracting both the reagent background and the inner absorbance value of test compound. Table 2. IC50 value in AGA*IA assay, versus heparanase inhibition of selected compounds of present invention.

[1] = tested on: U87MG (human glioblastoma astrocytoma); test: SRB Cell Cytotoxicity Assay, 72h; format: cell-based; details: Conc. 2.5 µM, N.I.: Not Inhibition
Experimental: (§4) SRB Cell Cytotoxicity Assay is an assay based upon the quantitative staining of cellular proteins by sulforhodamine B (SRB). […] Sulforhodamine B is an anionic aminoxanthene dye that forms an electrostatic complex with the basic amino acid residues of proteins under moderately acid conditions, which provides a sensitive linear response.
(§5) Inhibition of cell proliferation was then measured by the classical colorimetric SRB Cell Cytotoxicity assay. Absorbance was measured by spectrophotometer at a wavelength of 510 nm and cell proliferation was determined as percent with respect to control cells (cells treated with the vehicle alone). EC50 values were then determined by GraphPad Prism.

[2] = tested on: U2OS (human osteosarcoma); test: Matrigel cell invasion assay; format: cell-based
Experimental: (§1) Heparanase inhibitors were then evaluated for their activity on the invasive potential of HT1080 (human fibrosarcoma), U87MG (human glioblastoma astrocytoma) and U2OS (human osteosarcoma) human cell lines, using the Matrigel cell invasion assay which allows to assess the cell invasion ability of malignant and normal cells.
(§2) Invasion assay was performed using BioCoat cell culture inserts (BioCoat 8.0µm PET Membrane 24 Well Permeable Supports, Corning). Filters were coated with 100 µl of 300 µg/ml Matrigel dissolved in coating buffer (0.01M Tris pH 8.0, 0.7% NaCl) (Becton-Dickinson Sciences). DMEM (Dulbecco's Modified Eagle's Medium) containing 5% FBS was added to the lower chambers. Cells were pre-treated with heparanase inhibitors for 24 h, detached and added to the upper chambers in media containing the inhibitors. Cells were allowed to invade for 24 h at 37°C in a CO2 incubator and then unmigrated cells were removed from the upper chamber with a cotton swab. The invading cells were fixed, stained with 0.1% crystal violet for 10 min at room temperature, photographed and counted under inverted microscope.
(§3) Test compounds were analyzed at fixed concentration for several fields, in duplicates. Activity of test compounds was compared to the reference compound. Activity of most interesting compound was confirmed in a second cell invasion assay. Data were expressed as the percent invasion with respect to cell migration through uncoated insert membrane.

[3] = tested on: U87MG (human glioblastoma astrocytoma); test: Matrigel cell invasion assay; format: cell-based
Experimental: as §1, §2, §3

[4] = tested on: HT1080 (human fibrosarcoma); test: Matrigel cell invasion assay; format: cell-based
Experimental: as §1, §2, §3

[5] = tested on: U2OS (human osteosarcoma); test: SRB Cell Cytotoxicity Assay, 72h; format: cell-based; details: Conc. 2.5 µM, N.I.: Not Inhibition
Experimental: as §4, §5

[6] = tested on: HT1080 (human fibrosarcoma); test: SRB Cell Cytotoxicity Assay, 72h; format: cell-based; details: Conc. 2.5 µM, N.I.: Not Inhibition
Experimental: as §4, §5

VEGF = test: Real-Time Quantitative PCR of mRNA gene expression in HT1080 cells; details: 24 h, Conc 1.0 uM
Experimental: (§6) To evaluate the effect of heparanase inhibitors on the tumor transcription of genes encoding for proangiogenic factors, such as FGF1/2, VEGF, MMP-9, HSPE-1, the relative mRNA levels were analyzed by quantitative Real-Time Quantitative PCR.
(§7) To perform the assay, HT1080 (human fibrosarcoma) cells were cultured in complete medium containing 10%FCS (fetal calf serum). Cells were plated in 24-well plates and treated at fixed concentration (i.e., highest non-toxic concentration) of test compounds. After 24 h, cells were detached, collected and total RNA extracted by RNeasy Mini Kit (QIAGEN). Following reverse transcription step, FGF1/2, VEGF, MMP-9, HSPE-1 mRNA levels, were quantified by qPCR using the advanced Universal SYBR Green Supermix (Bio Rad) and ABI PRISM 7900HT Thermal Cycler System (Perkin Elmer), according to the manufacturer's instructions. […] Relative levels of RNA were calculated using the ddCt method. Standard curve and sample data were run in duplicate.

MMP-9 = test: as above; details: 24 h, Conc 1.0 uM
Experimental: as §6, §7

FGF-1 = test: as above; details: 24 h, Conc 1.0 uM
Experimental: as §6, §7

FGF-2 = test: as above; details: 24 h, Conc 1.0 uM
Experimental: as §6, §7

[7] = Table 1, fluorinated vs non-fluorinated analogues
[8] = Table 3, fluorinated vs non-fluorinated derivatives, read-out: AGAIA assay IC50

COc1ccc(C(=O)Nc2ccc(CNc3ccc(-c4nc5cc(CC(=O)O)ccc5[nH]4)cc3F)cc2)cc1Br [Compound 10, 2-(2-(4-((4-(3-bromo-4-methoxybenzamido)benzyl)amino)-3-fluorophenyl)-1H-benzo[d]imidazol-5-yl)acetic acid]
pIC50 (heparanase; [7]): 5.54
pIC50 (heparanase; Table 2, class symbols): 4.70 to 6.00
pIC50 (heparanase; [8]): 5.54

COc1ccc(C(=O)Nc2ccc(CNc3ccc(-c4nc5cc(CC(=O)NCC(=O)O)ccc5[nH]4)cc3F)cc2)cc1Br [Compound 15, 2-(2-(2-(4-((4-(3-bromo-4-methoxybenzamido)benzyl)amino)-3-fluorophenyl)-1H-benzo[d]imidazol-5-yl)acetamido)acetic acid]
Concentration of test compounds at which the cell growth is inhibited by 50 % U87MG [1]: N. I.
Invasion Assay U2OS ([2]; Conc. 2.5µM): + (+ : < 50%)
Invasion Assay U87MG ([3]; Conc. 2.5µM): + (+ : < 50%)
Invasion Assay HT1080 ([4]; Conc. 2.5µM): + (+ : < 50%)
pIC50 (heparanase; Table 2, class symbols): 6.00 to 6.30
Concentration of test compounds at which the cell growth is inhibited by 50 % U2OS [5]: N. I.
Concentration of test compounds at which the cell growth is inhibited by 50 % HT1080 [6]: N. I.

COc1ccc(C(=O)Nc2ccc(CNc3ccc(-c4nc5ccccc5[nH]4)cc3F)cc2)cc1Br [Compound 22]
Invasion Assay U2OS ([2]; Conc. 1.1µM): ++ (++: 50-90%)
Invasion Assay U87MG ([3]; Conc. 1.1µM): ++ (++: 50-90%)
Invasion Assay HT1080 ([4]; Conc. 1.1µM): ++ (++: 50-90%)
Gene Expression (% mRNA vs. control) VEGF (VEGF): ∼ 67%
Gene Expression (% mRNA vs. control) MMP-9 (MMP-9): ∼ 52%
Gene Expression (% mRNA vs. control) FGF-1 (FGF-1): ∼ 77%
Gene Expression (% mRNA vs. control) FGF-2 (FGF-2): ∼ 71%

COc1ccc(C(=O)Nc2ccc(CNc3ccc(-c4nc5ccccc5[nH]4)cc3)cc2)cc1Br [SST0408AA1, reference compound]
Gene Expression (% mRNA vs. control) VEGF (VEGF): ∼ 72%
Gene Expression (% mRNA vs. control) MMP-9 (MMP-9): ∼ 69%
Gene Expression (% mRNA vs. control) FGF-1 (FGF-1): ∼ 97%
Gene Expression (% mRNA vs. control) FGF-2 (FGF-2): ∼ 92%

COc1ccc(C(=O)Nc2ccc(CNc3ccc(-c4nc5cc(CC(=O)O)ccc5[nH]4)cc3)cc2)cc1Br [SST0914AA1, 2-(2-(4-((4-(3-bromo-4-methoxybenzamido)benzyl)amino)-phenyl)-1H-benzo[d]imidazol-5-yl)acetic acid, reference compound]
pIC50 (heparanase; [7]): < 5.00
pIC50 (heparanase; [8]): < 5.00

COc1ccc(C(=O)Nc2ccc(CNc3ccc(-c4nc5cc(CC(=O)O)ccc5o4)cc3)cc2)cc1Br [SST0915AA1, 2-(2-(4-((4-(3-bromo-4-methoxybenzamido)benzyl)amino)phenyl)benzo[d]oxazol-5-yl)acetic acid, reference compound]
pIC50 (heparanase; [7]): < 5.00
pIC50 (heparanase; [8]): < 5.00

Cc1ccc(C(=O)Nc2ccc(S(=O)(=O)O)c3cc(S(=O)(=O)O)cc(S(=O)(=O)O)c23)cc1NC(=O)c1cccc(NC(=O)Nc2cccc(C(=O)Nc3cc(C(=O)Nc4ccc(S(=O)(=O)O)c5cc(S(=O)(=O)O)cc(S(=O)(=O)O)c45)ccc3C)c2)c1 [Suramin, reference compound]
Invasion Assay U2OS ([2]; Conc. 10µM): -
Invasion Assay U87MG ([3]; Conc. 10µM): -
Invasion Assay HT1080 ([4]; Conc. 10µM): + (+ : < 50%)
